± gives the standard deviation of the averaged measurements.
What was measured:
Assay in all cases: level (log10 ratio to DMSO vehicle control); higher = higher biomarker level / cell amount than vehicle control
[1] = compound: C=CC(=O)OCCC(F)(F)C(F)(F)C(F)(F)C(F)(F)C(F)(F)C(F)(F)C(F)(F)C(F)(F)F [8:2 Fluorotelomer acrylate]; settings: in DMSO
Description: (§1)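 BioMAP Diversity Plus panel of 12 human primary cell co-culture systems (3C, 4H, LPS, SAg, BT, BF4T, BE3C, CASM3C, HDF3CGF, KF3CT, MyoF, Mphg). Compounds were added 1 h before stimulation and left for 24 h (MyoF 48 h; BT 72 h for soluble read-outs or 6 d for IgG). Biomarkers were read by ELISA, cytotoxicity by SRB, PBMC viability and proliferation by Alamar Blue. Each well value was divided by the mean of 8 DMSO control wells on the same plate and log10 transformed; duplicate blinded samples were tested at 4 concentrations.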

[2] = compound: OCC(F)(F)C(F)(F)C(F)(F)C(F)(F)C(F)(F)C(F)(F)F [6:1 Fluorotelomer alcohol]; settings: in DMSO
Description: as §1

[3] = compound: FC(F)(F)C(F)(F)C(F)(F)C(F)(F)CCI [1H,1H,2H,2H-Perfluorohexyl iodide]; settings: in DMSO
Description: as §1

[4] = compound: FC(F)(F)COC(OCC(F)(F)F)OCC(F)(F)F [tris(Trifluoroethoxy)methane]; settings: in DMSO
Description: as §1

[5] = compound: O=C(CC(=O)C(F)(F)C(F)(F)C(F)(F)F)c1cccs1 [(Perfluorobutyryl)-2-thenoylmethane]; settings: in DMSO
Description: as §1

[6] = compound: FC(F)(I)C(F)(F)C(F)(F)C(F)(F)C(F)(F)C(F)(F)I [1,6-Diiodoperfluorohexane]; settings: 6700 nM; in DMSO
Description: as §1

[7] = compound: O=C(Cl)C(F)(F)C(F)(F)C(F)(F)C(=O)Cl [Hexafluoroglutaryl chloride]; settings: in DMSO
Description: as §1

| Test System | level (log10) ([1]; 6700 nM) | level (log10) ([1]; 20000 nM) | level (log10) ([1]; 60000 nM) | level (log10) ([2]; 6700 nM) | level (log10) ([2]; 20000 nM) | level (log10) ([2]; 60000 nM) | level (log10) ([3]; 6700 nM) | level (log10) ([3]; 20000 nM) | level (log10) ([3]; 60000 nM) | level (log10) ([4]; 6700 nM) | level (log10) ([4]; 20000 nM) | level (log10) ([4]; 60000 nM) | level (log10) ([5]; 6700 nM) | level (log10) ([5]; 20000 nM) | level (log10) [6] | level (log10) ([7]; 6700 nM) | level (log10) ([7]; 20000 nM) | level (log10) ([7]; 60000 nM) |
| --- | --- | --- | --- | --- | --- | --- | --- | --- | --- | --- | --- | --- | --- | --- | --- | --- | --- | --- |
| BF4T:SRB | -0.004 ± 0.0028 | -0.011 ± 0.013 | 0.0055 ± 0.0092 | -0.0045 ± 0.0064 | -0.0045 ± 0.013 | -0.004 ± 0.023 | -0.009 ± 0.0028 | -0.0055 ± 0.005 | -0.0035 ± 0.0078 | -0.0065 ± 0.0064 | -0.0085 ± 0.00071 | -0.003 ± 0.014 | -0.023 ± 0.0085 | -0.057 ± 0.0042 | -0.016 | -0.015 ± 0.0099 | -0.0115 ± 0.0035 | -0.0195 ± 0.0035 |
| 3C:HLA-DR | 0.009 ± 0.0071 | 0.0055 ± 0.013 | 0.0175 ± 0.029 | 0.004 ± 0.011 | -0.003 ± 0.0028 | -0.0095 ± 0.0078 | -0.0005 ± 0.029 | -0.035 ± 0.04 | -0.0305 ± 0.04 | 0.014 ± 0.013 | 0.0065 ± 0.012 | 0.0205 ± 0.0035 | -0.093 ± 0.045 | -0.511 ± 0.026 | -0.005 | -0.008 ± 0.023 | -0.006 ± 0.013 | -0.0085 ± 0.0035 |
| LPS:CD141/Thrombomodulin | -0.044 ± 0.04 | -0.085 ± 0.016 | -0.0925 ± 0.03 | -0.0225 ± 0.03 | -0.021 ± 0.051 | 0.002 ± 0.0057 | 0.0185 ± 0.023 | 0.011 ± 0.038 | -0.005 ± 0.027 | -0.042 ± 0.042 | -0.0385 ± 0.0078 | -0.0505 ± 0.0035 | -0.009 ± 0.042 | -0.0665 ± 0.077 | 0.007 | -0.0035 ± 0.066 | -0.017 ± 0.028 | -0.017 ± 0.021 |
| BT:Secreted IgG | -0.0205 ± 0.012 | -0.041 ± 0.031 | -0.11 ± 0.13 | 0.004 ± 0.042 | -0.0005 ± 0.04 | -0.161 ± 0.14 | -0.012 ± 0.016 | -0.016 ± 0.0071 | -0.002 ± 0.014 | 0.019 ± 0.079 | -0.0135 ± 0.091 | 0.042 ± 0.014 | -0.009 ± 0.018 | -0.855 ± 0.016 | 0.019 | 0.012 ± 0.024 | 0.0205 ± 0.012 | 0.0115 ± 0.0035 |
| LPS:CXCL8/IL-8 | -0.0055 ± 0.0092 | -0.036 ± 0.04 | -0.0085 ± 0.018 | 0.002 ± 0.011 | -0.007 ± 0.018 | 0.0235 ± 0.0021 | 0.008 ± 0.034 | 0.021 ± 0.033 | 0.0375 ± 0.057 | -0.0245 ± 0.049 | -0.0285 ± 0.022 | 0.0315 ± 0.08 | -0.0595 ± 0.032 | -0.033 ± 0.047 | 0.002 | -0.0295 ± 0.00071 | 0 ± 0.037 | -0.0035 ± 0.043 |
| SAg:SRB | -0.004 ± 0.0028 | -0.0055 ± 0.011 | 0.001 ± 0.014 | 0.0065 ± 0.015 | 0 ± 0.0042 | 0.008 ± 0.0085 | 0.0005 ± 0.0064 | -0.0005 ± 0.005 | 0.0035 ± 0.0078 | -0.0155 ± 0.005 | -0.0135 ± 0.0021 | -0.013 ± 0.017 | -0.012 ± 0.013 | -0.0845 ± 0.0021 | 0.011 | -0.0025 ± 0.0035 | -0.0035 ± 0.0035 | 0.0045 ± 0.0021 |
| BE3C:CXCL10/IP-10 | -0.0215 ± 0.015 | -0.0165 ± 0.023 | 0.0005 ± 0.05 | 0.0355 ± 0.005 | 0.028 ± 0.011 | 0.0075 ± 0.025 | 0.008 ± 0.0099 | 0.0015 ± 0.0092 | 0.001 ± 0.021 | -0.001 ± 0.0085 | -0.0035 ± 0.018 | 0.0095 ± 0.0021 | -0.0615 ± 0.00071 | -0.578 ± 0.018 | 0.008 | 0.0325 ± 0.035 | 0.032 ± 0.028 | 0.0265 ± 0.043 |
| BF4T:IL-1alpha | -0.0115 ± 0.013 | -0.0185 ± 0.00071 | 0.015 ± 0.037 | -0.0005 ± 0.005 | 0.0035 ± 0.0021 | 0.0005 ± 0.011 | 0.001 ± 0.0071 | 0.0085 ± 0.0092 | 0.019 ± 0.024 | -0.0065 ± 0.013 | -0.0115 ± 0.013 | 0.003 ± 0.0099 | -0.041 | -0.0615 ± 0.011 | -0.017 | -0.014 ± 0.04 | -0.015 ± 0.018 | 0.0015 ± 0.0064 |
| 4H:SRB | -0.0045 ± 0.019 | -0.0035 ± 0.005 | 0.01 | -0.0125 ± 0.005 | -0.006 ± 0.0085 | -0.002 ± 0.014 | 0.0015 ± 0.0035 | -0.0045 ± 0.026 | 0.0005 ± 0.0078 | -0.0055 ± 0.0021 | -0.004 ± 0.0042 | -0.011 ± 0.017 | -0.0255 ± 0.00071 | -0.136 ± 0.0021 | 0.009 | 0 ± 0.0014 | 0.0055 ± 0.015 | 0 ± 0.014 |
| BF4T:PAI-I | -0.0035 ± 0.0064 | -0.0055 ± 0.0035 | 0.007 ± 0.017 | -0.001 ± 0.0028 | -0.012 | 0.002 ± 0.021 | 0.0075 ± 0.0078 | 0.008 ± 0.018 | 0.01 ± 0.038 | 0.0025 ± 0.023 | -0.012 ± 0.0042 | 0.007 | -0.0085 ± 0.0092 | -0.125 ± 0.014 | -0.072 | -0.01 ± 0.014 | -0.002 ± 0.0042 | -0.0005 ± 0.005 |
| LPS:CD142/Tissue Factor | 0.0375 ± 0.0035 | 0.0245 ± 0.044 | 0.0085 ± 0.03 | -0.0035 ± 0.03 | 0.0215 ± 0.011 | 0.0155 ± 0.016 | 0.0165 ± 0.0035 | 0.0275 ± 0.018 | 0.055 ± 0.051 | -0.013 ± 0.011 | -0.02 ± 0.027 | -0.0085 ± 0.06 | -0.004 ± 0.093 | 0.323 ± 0.0028 | 0.019 | 0.0275 ± 0.018 | -0.0025 ± 0.044 | -0.0185 ± 0.0035 |
| 3C:SRB | -0.001 ± 0.03 | 0.008 ± 0.018 | 0.0075 ± 0.005 | -0.0045 ± 0.0092 | -0.0025 ± 0.012 | -0.21 ± 0.3 | 0.0005 ± 0.018 | 0.004 ± 0.013 | -0.006 ± 0.0028 | -0.02 | -0.0035 ± 0.00071 | -0.006 ± 0.02 | -0.0035 ± 0.028 | -0.139 ± 0.021 | 0.03 | -0.0025 ± 0.0035 | 0.008 ± 0.013 | 0.013 ± 0.0071 |
| BT:B cell Proliferation | 0.0155 ± 0.0021 | 0.0035 ± 0.00071 | -0.0005 ± 0.04 | -0.007 ± 0.013 | -0.009 ± 0.038 | -0.148 ± 0.1 | -0.0105 ± 0.00071 | -0.0085 ± 0.016 | -0.0005 ± 0.032 | -0.021 ± 0.021 | -0.005 ± 0.018 | -0.006 ± 0.073 | -0.0105 ± 0.025 | -0.122 ± 0.036 | -0.019 | 0.01 | -0.024 ± 0.0057 | -0.0095 ± 0.026 |
| LPS:CD69 | 0.012 ± 0.054 | -0.044 ± 0.05 | -0.052 ± 0.061 | -0.017 ± 0.0042 | -0.0135 ± 0.0064 | -0.0085 ± 0.005 | 0 ± 0.013 | -0.008 ± 0.0071 | 0.0085 ± 0.011 | -0.0085 ± 0.015 | 0.012 ± 0.017 | 0.0295 ± 0.018 | -0.132 ± 0.0014 | -0.0555 ± 0.07 | -0.019 | 0.0045 ± 0.021 | -0.0195 ± 0.07 | -0.005 ± 0.051 |
| BE3C:CD87/uPAR | 0.03 ± 0.041 | 0.027 ± 0.035 | 0.0595 ± 0.049 | 0.007 ± 0.017 | -0.0075 ± 0.0078 | 0.0105 ± 0.035 | -0.0105 ± 0.019 | -0.011 | 0.0285 ± 0.011 | -0.01 ± 0.0028 | 0.0475 ± 0.047 | -0.0075 ± 0.023 | 0.013 ± 0.0028 | -0.007 ± 0.0014 | 0.059 | -0.0055 ± 0.0021 | -0.009 ± 0.0028 | 0.011 ± 0.0085 |
| BF4T:CD54/ICAM-1 | -0.0145 ± 0.013 | -0.026 ± 0.0042 | -0.0285 ± 0.026 | -0.0065 ± 0.023 | -0.01 ± 0.016 | -0.005 ± 0.018 | -0.0025 ± 0.0035 | -0.0095 ± 0.0021 | -0.002 ± 0.0057 | -0.007 ± 0.017 | 0 ± 0.038 | -0.017 ± 0.017 | 0.011 ± 0.017 | -0.0745 ± 0.00071 | -0.073 | 0.0065 ± 0.0064 | -0.004 | 0.016 ± 0.017 |

— the supplement of paper PMC10331698
